Results as given in ChEMBL document CHEMBL1201862, “PubChem BioAssay data set” (2004).
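Briefly, cells in 96-well plates were exposed to five compound concentrations for 48 h, and endpoints were estimated by linear interpolation. GI50 = concentration required for 50% inhibition of growth.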 Calls of active or inactive are those of the source. Cut-off read from the data, not from the text of the source: active = GI50 up to about 1.1 µM and inactive = higher.

Legend:
Experiment in all cases: NCI-60 cell line screen, 48 h
TK-10 = test system: TK-10
MDA-MB-435 = test system: MDA-MB-435
UO-31 = test system: UO-31
SNB-75 = test system: SNB-75
SK-OV-3 = test system: SK-OV-3
ACHN = test system: ACHN
SW-620 = test system: SW-620
SF-295 = test system: SF-295
SK-MEL-28 = test system: SK-MEL-28
NCI-H522 = test system: NCI-H522
NCI-H226 = test system: NCI-H226
A498 = test system: A498
SR = test system: SR
RXF 393 = test system: RXF 393
DU-145 = test system: DU-145
OVCAR-4 = test system: OVCAR-4
IGROV-1 = test system: IGROV-1
PC-3 = test system: PC-3
A549 = test system: A549
786-0 = test system: 786-0
HCC 2998 = test system: HCC 2998
UACC-257 = test system: UACC-257
SN12C = test system: SN12C
Malme-3M = test system: Malme-3M
CCRF-CEM = test system: CCRF-CEM
HCT-116 = test system: HCT-116
EKVX = test system: EKVX
NCI-H23 = test system: NCI-H23
LOX IMVI = test system: LOX IMVI
NCI-H460 = test system: NCI-H460
SK-MEL-2 = test system: SK-MEL-2
SK-MEL-5 = test system: SK-MEL-5
COLO 205 = test system: COLO 205
SNB-19 = test system: SNB-19
Hs-578T = test system: Hs-578T
SF-539 = test system: SF-539
OVCAR-3 = test system: OVCAR-3
SF-268 = test system: SF-268
BT-549 = test system: BT-549
KM12 = test system: KM12
MCF7 = test system: MCF7
U-251 = test system: U-251
M14 = test system: M14
K562 = test system: K562
HT-29 = test system: HT-29
MOLT-4 = test system: MOLT-4
MDA-N = test system: MDA-N
MDA-MB-231 = test system: MDA-MB-231
RPMI-8226 = test system: RPMI-8226
UACC-62 = test system: UACC-62
OVCAR-5 = test system: OVCAR-5
HOP-92 = test system: HOP-92
HL-60 = test system: HL-60
T47D = test system: T47D
OVCAR-8 = test system: OVCAR-8
HCT-15 = test system: HCT-15
NCI/ADR-RES = test system: NCI/ADR-RES
HOP-62 = test system: HOP-62
CAKI-1 = test system: CAKI-1

**Q.** For `COc1cc(/C=C2\CC(C)C/C(=C\c3ccc(O)c(OC)c3)C2=O)ccc1O` (stereo not given), which GI50 (TK-10) is on record?
**A.** The GI50 was 5.45 µM (inactive).

**Q.** And the GI50 (MDA-MB-435)?
**A.** The GI50 was 2.32 µM (inactive).

**Q.** What about the GI50 (UO-31) of the same compound?
**A.** Its GI50 is 2.24 µM (inactive).

**Q.** What about the GI50 (SNB-75) of the same compound?
**A.** Its GI50 is 4.24 µM (inactive).

**Q.** And the GI50 (SK-OV-3)?
**A.** Its GI50 is 3.49 µM (inactive).

**Q.** What about the GI50 (ACHN) of the same compound?
**A.** The GI50 was 3.13 µM (inactive).

**Q.** What about the GI50 (SW-620) of the same compound?
**A.** The GI50 was 2.24 µM (inactive).

**Q.** What about the GI50 (SF-295) of the same compound?
**A.** The GI50 was 10.6 µM (inactive).

**Q.** And the GI50 (SK-MEL-28)?
**A.** Its GI50 is 3.42 µM (inactive).

**Q.** And the GI50 (NCI-H522)?
**A.** The GI50 was 2.11 µM (inactive).

**Q.** And the GI50 (NCI-H226)?
**A.** Its GI50 is 4.85 µM (inactive).

**Q.** What about the GI50 (A498) of the same compound?
**A.** The GI50 was 2.52 µM (inactive).

**Q.** What about the GI50 (SR) of the same compound?
**A.** The GI50 was 2.86 µM (inactive).

**Q.** And the GI50 (RXF 393)?
**A.** The GI50 was 2.85 µM (inactive).

**Q.** What about the GI50 (DU-145) of the same compound?
**A.** The GI50 was 3.72 µM (inactive).

**Q.** What about the GI50 (OVCAR-4) of the same compound?
**A.** Its GI50 is 2.52 µM (inactive).

**Q.** And the GI50 (IGROV-1)?
**A.** Its GI50 is 2.4 µM (inactive).

**Q.** And the GI50 (PC-3)?
**A.** The GI50 was 4 µM (inactive).

**Q.** What about the GI50 (A549) of the same compound?
**A.** The GI50 was 3.64 µM (inactive).

**Q.** What about the GI50 (786-0) of the same compound?
**A.** The GI50 was > 20.2 µM (inactive).

**Q.** What about the GI50 (HCC 2998) of the same compound?
**A.** Its GI50 is 3.21 µM (inactive).

**Q.** And the GI50 (UACC-257)?
**A.** The GI50 was 3.87 µM (inactive).

**Q.** What about the GI50 (SN12C) of the same compound?
**A.** The GI50 was 2.56 µM (inactive).

**Q.** What about the GI50 (Malme-3M) of the same compound?
**A.** The GI50 was 1.9 µM (inactive).

**Q.** And the GI50 (CCRF-CEM)?
**A.** Its GI50 is 2.56 µM (inactive).

**Q.** What about the GI50 (HCT-116) of the same compound?
**A.** Its GI50 is 1.77 µM (inactive).

**Q.** What about the GI50 (EKVX) of the same compound?
**A.** Its GI50 is 13.8 µM (inactive).

**Q.** And the GI50 (NCI-H23)?
**A.** The GI50 was 3.1 µM (inactive).

**Q.** And the GI50 (LOX IMVI)?
**A.** The GI50 was 2.29 µM (inactive).

**Q.** What about the GI50 (NCI-H460) of the same compound?
**A.** Its GI50 is 2.88 µM (inactive).

**Q.** What about the GI50 (SK-MEL-2) of the same compound?
**A.** The GI50 was 4.53 µM (inactive).

**Q.** What about the GI50 (SK-MEL-5) of the same compound?
**A.** The GI50 was 1.82 µM (inactive).

**Q.** And the GI50 (COLO 205)?
**A.** Its GI50 is 10.9 µM (inactive).

**Q.** And the GI50 (SNB-19)?
**A.** Its GI50 is 10.2 µM (inactive).

**Q.** What about the GI50 (Hs-578T) of the same compound?
**A.** Its GI50 is 2.05 µM (inactive).

**Q.** What about the GI50 (SF-539) of the same compound?
**A.** Its GI50 is 3.12 µM (inactive).

**Q.** And the GI50 (OVCAR-3)?
**A.** The GI50 was 2.8 µM (inactive).

**Q.** What about the GI50 (SF-268) of the same compound?
**A.** The GI50 was 4.31 µM (inactive).

**Q.** And the GI50 (BT-549)?
**A.** Its GI50 is 3.23 µM (inactive).

**Q.** And the GI50 (KM12)?
**A.** Its GI50 is 1.85 µM (inactive).

**Q.** What about the GI50 (MCF7) of the same compound?
**A.** Its GI50 is 4.66 µM (inactive).

**Q.** And the GI50 (U-251)?
**A.** The GI50 was 2.38 µM (inactive).

**Q.** What about the GI50 (M14) of the same compound?
**A.** Its GI50 is 3.04 µM (inactive).

**Q.** And the GI50 (K562)?
**A.** Its GI50 is 4.48 µM (inactive).

**Q.** And the GI50 (HT-29)?
**A.** The GI50 was 6.37 µM (inactive).

**Q.** What about the GI50 (MOLT-4) of the same compound?
**A.** Its GI50 is 2.29 µM (inactive).

**Q.** What about the GI50 (MDA-N) of the same compound?
**A.** The GI50 was 2.54 µM (inactive).

**Q.** And the GI50 (MDA-MB-231)?
**A.** The GI50 was 2.06 µM (inactive).

**Q.** What about the GI50 (RPMI-8226) of the same compound?
**A.** The GI50 was 3.58 µM (inactive).

**Q.** And the GI50 (UACC-62)?
**A.** Its GI50 is 1.85 µM (inactive).

**Q.** And the GI50 (OVCAR-5)?
**A.** Its GI50 is 19.6 µM (inactive).

**Q.** And the GI50 (HOP-92)?
**A.** Its GI50 is 2.92 µM (inactive).

**Q.** What about the GI50 (HL-60) of the same compound?
**A.** Its GI50 is 2.98 µM (inactive).

**Q.** And the GI50 (T47D)?
**A.** Its GI50 is 1.6 µM (inactive).

**Q.** What about the GI50 (OVCAR-8) of the same compound?
**A.** The GI50 was 9.2 µM (inactive).

**Q.** And the GI50 (HCT-15)?
**A.** Its GI50 is 1.73 µM.

**Q.** What about the GI50 (NCI/ADR-RES) of the same compound?
**A.** The GI50 was 17.5 µM (inactive).

**Q.** What about the GI50 (HOP-62) of the same compound?
**A.** Its GI50 is 3.46 µM (inactive).

**Q.** What does the source list for `N#Cc1c(C#N)c(-c2ccccc2)n(/N=C\c2ccccc2)c1N`?
**A.** GI50 (TK-10): 29.4 µM (inactive); GI50 (MDA-MB-435): 45.4 µM (inactive); GI50 (UO-31): 19 µM (inactive); GI50 (SNB-75): 19.1 µM (inactive); GI50 (SK-OV-3): 14.1 µM (inactive); GI50 (ACHN): 14.2 µM (inactive); GI50 (SW-620): 62.4 µM (inactive); GI50 (SF-295): 7.4 µM (inactive); GI50 (NCI-H522): 11.6 µM (inactive); GI50 (NCI-H226): 20.8 µM (inactive); GI50 (A498): 23.8 µM (inactive); GI50 (SR): 10.4 µM (inactive); GI50 (RXF 393): 17.9 µM (inactive); GI50 (DU-145): 35.2 µM (inactive); GI50 (OVCAR-4): 12.9 µM (inactive); GI50 (IGROV-1): 15.6 µM (inactive); GI50 (PC-3): 14.4 µM (inactive); GI50 (A549): 13 µM (inactive); GI50 (786-0): 28.1 µM (inactive); GI50 (HCC 2998): 19.7 µM (inactive); GI50 (UACC-257): 17.3 µM (inactive); GI50 (SN12C): 47 µM (inactive); GI50 (Malme-3M): 29.9 µM (inactive); GI50 (CCRF-CEM): 12.3 µM (inactive); GI50 (HCT-116): 29.4 µM (inactive); GI50 (EKVX): 13.6 µM (inactive); GI50 (CAKI-1): 18.3 µM (inactive); GI50 (NCI-H23): 24.4 µM (inactive); GI50 (LOX IMVI): 8.02 µM (inactive); GI50 (SK-MEL-2): 22.2 µM (inactive); GI50 (SK-MEL-5): 11.4 µM (inactive); GI50 (COLO 205): 22.5 µM (inactive); GI50 (SNB-19): 30.8 µM (inactive); GI50 (Hs-578T): 15.9 µM (inactive); GI50 (SF-539): 15.9 µM (inactive); GI50 (OVCAR-3): 12.9 µM (inactive); GI50 (SF-268): 28.8 µM (inactive); GI50 (BT-549): 18.7 µM (inactive); GI50 (KM12): 26.9 µM (inactive); GI50 (MCF7): 11.8 µM (inactive); GI50 (U-251): 16.5 µM (inactive); GI50 (M14): 24.8 µM (inactive); GI50 (K562): 13.2 µM (inactive); GI50 (HT-29): 26.1 µM (inactive); GI50 (MOLT-4): 5.27 µM (inactive); GI50 (MDA-N): 36.1 µM (inactive); GI50 (MDA-MB-231): 16 µM (inactive); GI50 (RPMI-8226): 3.46 µM (inactive); GI50 (UACC-62): 12.5 µM (inactive); GI50 (OVCAR-5): 29 µM (inactive); GI50 (HOP-92): 20.8 µM (inactive); GI50 (HL-60): 16.1 µM (inactive); GI50 (T47D): 3.37 µM (inactive); GI50 (OVCAR-8): 18 µM (inactive); GI50 (HCT-15): 30.6 µM; GI50 (NCI/ADR-RES): 11.2 µM (inactive); GI50 (HOP-62): 31.3 µM (inactive)
